From ChEMBL document CHEMBL3885861, “Open TG-GATES”

Organism: Rattus norvegicus
Experiment: Open TG-GATES - Regimen: Daily Repeat
Type: toxicity, organism-based, Sprague-Dawley
Design: regimen Daily Repeat, gender Male, age 6 weeks
Details: in vivo, po, 0 mg/kg, route gavage, dose level Control; for APTT / Bas / Eos / Fbg / Ht / MCH / MCHC / MCV / Mono / Neu / PT / RBC / Ret: tissue Blood; for KIDNEY_L / KIDNEY_R / KIDNEY_TOTAL: tissue Kidney; for ALP / ALT / AST / BUN / CRE / Ca / Cl / DBIL / GLC / IP / K / LDH / Na / PL / RALB / TBIL / TC / TG / TP / gamma-GTP: tissue Plasma

CC(=O)Nc1nnc(S(N)(=O)=O)s1 [ACETAZOLAMIDE]
TERMINAL_BW (72 h, time 3 day): 229 g
APTT (72 h, time 3 day): 21.2 s
Bas (72 h, time 3 day): 0%
Eos (72 h, time 3 day): 1%
Fbg (72 h, time 3 day): 302.2 mg/dL
Ht (72 h, time 3 day): 39.4%
MCH (72 h, time 3 day): 21.3 pg
MCHC (72 h, time 3 day): 34%
MCV (72 h, time 3 day): 62.8 fL
Mono (72 h, time 3 day): 3%
Neu (72 h, time 3 day): 16%
PT (72 h, time 3 day): 17 s
RBC (72 h, time 3 day): 628.2 x10_4/ul
Ret (72 h, time 3 day): 6.9%
KIDNEY_L (72 h, time 3 day): 1 g
KIDNEY_R (72 h, time 3 day): 1 g
KIDNEY_TOTAL (72 h, time 3 day): 2 g
ALP (72 h, time 3 day): 1759.2 IU/L
ALT (72 h, time 3 day): 45.6 IU/L
AST (72 h, time 3 day): 81.2 IU/L
BUN (72 h, time 3 day): 17.8 mg/dL
CRE (72 h, time 3 day): 0.1 mg/dL
Ca (72 h, time 3 day): 10.8 mg/dL
Cl (72 h, time 3 day): 106.6 meq/L
DBIL (72 h, time 3 day): 0 mg/dL
GLC (72 h, time 3 day): 193.6 mg/dL
IP (72 h, time 3 day): 7.5 mg/dL
K (72 h, time 3 day): 4.3 meq/L
LDH (72 h, time 3 day): 208.8 IU/L
Na (72 h, time 3 day): 142 meq/L
PL (72 h, time 3 day): 135 mg/dL
RALB (72 h, time 3 day): 3.1 g/dL
TBIL (72 h, time 3 day): 0.008 mg/dL
TC (72 h, time 3 day): 71.2 mg/dL
TG (72 h, time 3 day): 86.2 mg/dL
TP (72 h, time 3 day): 5.5 g/dL
gamma-GTP (72 h, time 3 day): 1.8 IU/L
TERMINAL_BW ([…], time 7 day): 260.7 g
TERMINAL_BW ([…], time 14 day): 306.6 g
TERMINAL_BW ([…], time 28 day): 366.7 g
APTT ([…], time 7 day): 21.8 s
Bas ([…], time 7 day): 0%
Eos ([…], time 7 day): 0.8%
Ht ([…], time 7 day): 39.7%
MCH ([…], time 7 day): 21.9 pg
MCHC ([…], time 7 day): 35.8%
MCV ([…], time 7 day): 61.1 fL
Mono ([…], time 7 day): 2.4%
Neu ([…], time 7 day): 11.8%
PT ([…], time 7 day): 16.1 s
RBC ([…], time 7 day): 650.4 x10_4/ul
Ret ([…], time 7 day): 5.7%
APTT ([…], time 14 day): 23.3 s
Bas ([…], time 14 day): 0%
Eos ([…], time 14 day): 0.8%
Fbg ([…], time 14 day): 297.2 mg/dL
Ht ([…], time 14 day): 40%
MCH ([…], time 14 day): 20.5 pg
MCHC ([…], time 14 day): 35.3%
MCV ([…], time 14 day): 58.2 fL
Mono ([…], time 14 day): 2.2%
Neu ([…], time 14 day): 14%
PT ([…], time 14 day): 16.5 s
RBC ([…], time 14 day): 688.2 x10_4/ul
Ret ([…], time 14 day): 5.1%
APTT ([…], time 28 day): 25.9 s
Bas ([…], time 28 day): 0%
Eos ([…], time 28 day): 0.6%
Fbg ([…], time 28 day): 316 mg/dL
Ht ([…], time 28 day): 44%
MCH ([…], time 28 day): 19 pg
MCHC ([…], time 28 day): 34.3%
MCV ([…], time 28 day): 55.6 fL
Mono ([…], time 28 day): 2%
Neu ([…], time 28 day): 12.4%
RBC ([…], time 28 day): 791.4 x10_4/ul
Ret ([…], time 28 day): 2.8%
KIDNEY_L ([…], time 7 day): 1 g
KIDNEY_R ([…], time 7 day): 1.1 g
KIDNEY_TOTAL ([…], time 7 day): 2.1 g
KIDNEY_L ([…], time 14 day): 1.2 g
KIDNEY_R ([…], time 14 day): 1.2 g
KIDNEY_TOTAL ([…], time 14 day): 2.4 g
KIDNEY_L ([…], time 28 day): 1.3 g
KIDNEY_R ([…], time 28 day): 1.3 g
KIDNEY_TOTAL ([…], time 28 day): 2.6 g
ALP ([…], time 7 day): 1905.2 IU/L
ALT ([…], time 7 day): 37.6 IU/L
AST ([…], time 7 day): 72.6 IU/L
BUN ([…], time 7 day): 22 mg/dL
CRE ([…], time 7 day): 0.2 mg/dL
Ca ([…], time 7 day): 10.8 mg/dL
Cl ([…], time 7 day): 106.4 meq/L
DBIL ([…], time 7 day): 0 mg/dL
GLC ([…], time 7 day): 203 mg/dL
IP ([…], time 7 day): 6.9 mg/dL
K ([…], time 7 day): 4.7 meq/L
LDH ([…], time 7 day): 193.6 IU/L
Na ([…], time 7 day): 142.2 meq/L
PL ([…], time 7 day): 132.6 mg/dL
RALB ([…], time 7 day): 3.1 g/dL
TBIL ([…], time 7 day): 0.002 mg/dL
TC ([…], time 7 day): 63.2 mg/dL
TG ([…], time 7 day): 101.8 mg/dL
TP ([…], time 7 day): 5.3 g/dL
gamma-GTP ([…], time 7 day): 1.6 IU/L
ALP ([…], time 14 day): 1570.4 IU/L
AST ([…], time 14 day): 67.2 IU/L
BUN ([…], time 14 day): 19.8 mg/dL
CRE ([…], time 14 day): 0.2 mg/dL
Ca ([…], time 14 day): 10.6 mg/dL
DBIL ([…], time 14 day): 0 mg/dL
GLC ([…], time 14 day): 197.6 mg/dL
IP ([…], time 14 day): 7.4 mg/dL
K ([…], time 14 day): 4.3 meq/L
LDH ([…], time 14 day): 171.4 IU/L
Na ([…], time 14 day): 143.6 meq/L
PL ([…], time 14 day): 142.4 mg/dL
RALB ([…], time 14 day): 3.1 g/dL
TBIL ([…], time 14 day): 0.002 mg/dL
TC ([…], time 14 day): 67 mg/dL
TP ([…], time 14 day): 5.7 g/dL
gamma-GTP ([…], time 14 day): 2.4 IU/L
ALP ([…], time 28 day): 1140.2 IU/L
ALT ([…], time 28 day): 40.6 IU/L
AST ([…], time 28 day): 63.8 IU/L
BUN ([…], time 28 day): 18.8 mg/dL
CRE ([…], time 28 day): 0.2 mg/dL
Cl ([…], time 28 day): 105.4 meq/L
DBIL ([…], time 28 day): 0 mg/dL
GLC ([…], time 28 day): 207.8 mg/dL
IP ([…], time 28 day): 6.2 mg/dL
K ([…], time 28 day): 4.1 meq/L
LDH ([…], time 28 day): 138.8 IU/L
Na ([…], time 28 day): 142.6 meq/L
RALB ([…], time 28 day): 3.3 g/dL
TBIL ([…], time 28 day): 0.004 mg/dL
TC ([…], time 28 day): 69.8 mg/dL
TG ([…], time 28 day): 178.4 mg/dL
TP ([…], time 28 day): 6.1 g/dL
gamma-GTP ([…], time 28 day): 2.2 IU/L
